According to patent US20230398140A1, “OCULAR-TENSION-INCREASING AGENT CAPABLE OF BEING DEPRIVED OF DRUG ACTIVITY BY TEMPERATURE CONTROL” (UNIVERSITY OF YAMANASHI, priority 2020, published 2023):

System: White house rabbits
Settings: rabbit, in vivo
Method: White house rabbits (2 to 3.5 kg) were positioned with a positioner and ocular tension was measured by a handy tonometer (Icare TONOVET Plus, M.E, Technica) while they were kept awake, and then anesthetized with ketamine and xylazine (ketamine hydrochloride 60 mg/kg; Sankyo, Tokyo, Japan and xylazine 10 mg/kg; Bayer, Munich, Germany). Ocular tension was again measured, and eyeballs were observed by a microscope under anesthesia. Thereafter, 100 μL of 1 wt % POxMix was injected into the anterior chamber of just one of the eyes of each rabbit. Microscopic observation and tonometry were carried out immediately after injection, 30 minutes and 24 hours after anesthesia.

## poly(2-propyl-2-oxazoline) [POx]
  cloudiness of eyeball after 24 hours: deposited on the iris and lens surface with the passage of time and remained as a white sediment
  cloudiness of eyeball immediately after administration: became cloudy
